Data set [1] has as its target T1, KOR (Homo sapiens, UniProt P41145).
T1 construct: expressed in transfected cells; host or cells: CHO (Chinese hamster ovary) cell line, membrane preparation
As to the kind of experiment: KOR 35S-GTP[γS] binding assay (Example 7). It counts as biochemical. The following applies: for KOR 35S-GTP[γS] Binding % Emax of U50,488H: U50,488H normalized to 100%; for EC50: three experiments. The protocol:
(§1) Aliquots of a membrane protein (30 μg) were incubated with the corresponding radioligand in the presence of different concentrations of the drug under investigation at 30° C. for 1 h. […] The potency of the drugs in displacing the specific binding of the radioligand was determined from data using linear regression analysis of Hill plots. The IC50 values will then be determined and corrected to Ki values using the Cheng-Prusoff equation. Functional assays were conducted in the same cell membranes used for the receptor binding assays. Membrane proteins (10 μg) were incubated with varying concentrations of drugs, GDP (μ: 10 μM; κ and δ: 20 μM) and 0.1 nM ^35S-GTP[γS] in assay buffer for 2 h (μ) or 1.5 h (κ and δ) at 30° C. Nonspecific binding was determined with 10 μM unlabeled GTP[γS].

Data set [2] concerns the target T1, KOR. Put plainly: Competitive radioligand binding, [3H]norBNI or [3H]DPN, CHO cells (Example 7). To be noted: Table 13; [3H]norBNI as radioligand; read-out: Ki κ. The protocol: as §1
Data set [3] concerns the target T2, MOR (Mus musculus, UniProt P42866). Put plainly: MOR 35S-GTP[γS] binding assay (Example 7). To be noted: Table 13; for MOR 35S-GTP[γS] Binding % Emax of DAMGO: DAMGO normalized to 100%. The data set is classed as biochemical. On the set-up: expressed in transfected cells; host or cells: CHO (Chinese hamster ovary) cell line, membrane preparation. The protocol:
as §1
(GTPγS resists hydrolysis and so accumulates on activated G proteins.)

Data set [4] deals with T2, MOR. Put plainly: Competitive radioligand binding, [3H]naloxone, CHO cells (Example 7). More on the design: expressed in transfected cells; host or cells: CHO (Chinese hamster ovary) cell line, membrane preparation. To be noted: Table 13; for Selectivity δ/μ / Selectivity κ/μ: Ki ratio; for Ki: [3H]naloxone, three experiments, read-out: Ki μ. The protocol:
as §1

Data set [5] has as its target DOR (UniProt P41143). As to the kind of experiment: Competitive radioligand binding, [3H]NTI, CHO cells (Example 7). The following applies: Table 13, read-out: Ki δ. On the set-up: Ki δ; [3H]NTI; DOR 35S-GTP[γS]; other: three experiments; other: NAP; other: SNC80 normalized to 100%. The protocol:
as §1

Data set [6] addresses DOR (UniProt P41143). Put plainly: DOR 35S-GTP[γS] binding assay (Example 7). The following applies: for DOR 35S-GTP[γS] Binding % Emax of SNC80: SNC80 normalized to 100%; for EC50: three experiments. On the set-up: Ki δ; [3H]NTI; DOR 35S-GTP[γS]; other: three experiments; other: NAP; other: SNC80 normalized to 100%. The data set is classed as biochemical. The protocol:
as §1

In data set [7] the test system is Caco-2 cells. Put plainly: Bidirectional transport in Caco-2 cells. It counts as in vitro ADME. The protocol: To further characterize the permeability of compounds 8 and 12, they were evaluated in Caco-2 cells for their bidirectional transport capacity (FIG. 29).
Caco-2 (passages 45-47; ATCC, Manassas, Va.) cell culture and bidirectional permeability studies with polyester Transwell filters were performed as described previously.^67 Briefly, cells were cultured in Dulbecco's modified Eagle's medium (9.6 g/L glucose) with 10%/fetal bovine serum and supplemented with 100 unit/mL penicillin, 100 μg/mL streptomycin, and 5% nonessential amino acids for 22 days after seeding on 12 mm 0.4 μm #3460 Transwell-Clear inserts (Fisher Scientific) at a density of 80,000 cells/cm^2. […] A portion of the supernatants was analyzed by HPLC-UV using an Alltima HP C18 column (3 μm, 4.6×100 mm; Alltech, Deerfield, Ill.) at 270 nm for NAP, and a Microsorb-MV 100-3 C18 (4.6×100 mm; Varian) column for NMP or NGP at 266 nm. Analytes concentration was quantified from standard curves prepared in transport buffer-acetonitrile (4:1). […] Apparent permeability was then calculated using the following equation: Papp=J/(A×Ci), where J is the transport rate, A is the surface area of the cell monolayer, and Ci is the initial concentration of the dosing solution.
For orientation: Passage across Caco-2 layers is used to estimate intestinal permeability.

In a further data set the test system is mice. Put plainly: Tail flick test, acute antinociception (Example 7). The following applies: 10 mg/kg. On the technique in general: Hot-plate and tail-flick tests time the reaction to a heat stimulus.
The next data set relates to morphine naive mice. Put plainly: Acute charcoal gavage and intestinal motility assay in morphine naive mice. The following applies: morphine 10 mg/kg.
The target in data set [8] is T2, MOR. Put plainly: [35S]GTPγS functional assay (Example 1). The data set is classed as biochemical. On the set-up: expressed in transfected cells; host or cells: CHO (Chinese hamster ovary) cell line, membrane preparation. The following applies: Emax of compound vs Emax of DAMGO (normalized to 100%).
Data set [9] has as its target T2, MOR. Put plainly: Competitive radioligand binding, [3H]DAMGO, mono-cloned receptor in CHO cells (Example 1). On the set-up: expressed in transfected cells; host or cells: CHO (Chinese hamster ovary) cell line, membrane preparation. To be noted: read-out: Ki ± SEM [3H]DAMGO (μ); n=3.
For data set [10], the target named is DOR (UniProt P41143). It counts as binding. The following applies: n=3; read-out: Ki ± SEM DOR. On the set-up: rows headed: Ki ± SEM [3H]NTI (δ); other: n=3; Ki ± SEM DOR.
For data set [11], the target named is DOR (UniProt P41143). It counts as binding. More on the design: rows headed: Ki ± SEM [3H]NTI (δ); other: n=3; Ki ± SEM DOR. To be noted: n=3; read-out: Ki ± SEM [3H]NTI (δ).
Data set [12] has as its target T1, KOR. The data set is classed as binding. To be noted: n=3; read-out: Ki ± SEM [3H]norBNI (κ).
Data set [13] has as its target T1, KOR. The data set is classed as binding. The following applies: n=3; read-out: Ki ± SEM KOR.
Data set [14] has as its target T2, MOR. As to the kind of experiment: Competitive radioligand binding, [3H]naloxone, CHO cells (Example 2). To be noted: n=3; read-out: Ki ± SEM MOR. On the set-up: expressed in transfected cells; host or cells: CHO (Chinese hamster ovary) cell line, membrane preparation.
The conditions of data set [15]: dose as high as 10 mg/kg; cited from earlier work.
In data set [16] the target is T2, MOR. On the set-up: expressed in transfected cells; host or cells: CHO (Chinese hamster ovary) cell line, membrane preparation. The following applies: Table 13, NAP, cited from earlier work.
In data set [17] the test system is mouse gastrointestinal transit. To be noted: high doses; cited from earlier work.
In data set [18] the target is T2, MOR. On the set-up: expressed in transfected cells; host or cells: CHO (Chinese hamster ovary) cell line, membrane preparation. The following applies: Table 13 controls and NAP; read-out: Ki μ (see reference 65); cited from earlier work.
Data set [19] has as its target T2, MOR. As to the kind of experiment: 35S-GTP[γS]-binding functional assay in MOR expressing CHO cells (Example 2). It counts as biochemical. More on the design: expressed in transfected cells; host or cells: CHO (Chinese hamster ovary) cell line, membrane preparation. The protocol:
Furthermore, these systems express the receptor at high density to provide optimal signal-to-noise ratios in the radioligand and ^35S-GTP[γS] binding assays.
Aliquots of a membrane preparation were incubated with the radioligands in the presence of different concentrations of the drug under investigation at 30° C. for 1 h. […] The potency of the drugs in displacing the specific binding of the radioligand was determined from data using linear regression analysis of Hill plots. The IC50 values will then be determined and corrected to K1 values using the Cheng-Prusoff equation. Functional assays, including ^35S-GTP[γS]-binding assay were conducted in the same cell membranes used for the receptor binding assays.

Data set [20] relates to Caco-2 cells. To be noted: cited from earlier work.
In data set [21] the test system is morphine antinociception in mice. As to the kind of experiment: Warm-water tail immersion test, blockade of morphine antinociception (Example 2). The data set is classed as in vivo, mouse (Swiss Webster). The following applies: s.c., 5 min before morphine 10 mg/kg s.c.; 56 °C.
The conditions of data set [22]: in vivo; cited from earlier work.
The subject of data set [23] is morphine antinociceptive effect in mice. The following applies: antagonizing morphine 10 mg/kg; s.c.; cited from earlier work.

Read-outs that look alike come from different tables or passages of the source.

As usually defined, the EC50 is the concentration giving half of the maximal effect. Broadly, the Ki is the dissociation constant of the complex between target and ligand, obtained from inhibition or displacement. Take “17-Cyclopropylmethyl-3,14β-dihydroxy-4,5α-epoxy-6β-{[4′-(3′-methylpyridyl)]carboxamido}morphinan [Compound 8]”: on KOR [1], the “KOR 35S-GTP[γS] Binding % Emax of U50,488H” value is listed as 31.4 ± 3.9% and a half-maximal response (EC50) required 26.4 ± 8.4 nM. For the same compound, the Ki on KOR [2] was 96.7 ± 12.2 nM. For the same compound, at MOR [3], the EC50 was found to be 1.52 ± 0.26 nM and the “MOR 35S-GTP[γS] Binding % Emax of DAMGO” value was 30.63 ± 0.55%. Moreover, on MOR [4], the “Selectivity δ/μ” value amounted to 470, the “Selectivity κ/μ” value is 166 and the Ki came out at 0.58 ± 0.25 nM. Also, the inhibitory constant (Ki) at DOR [5] is 273.6 ± 1.8 nM. On DOR [6], the “DOR 35S-GTP[γS] Binding % Emax of SNC80” value came to 90.2 ± 21.0% and the midpoint of the response, the EC50, lay at 38.6 ± 10 nM. Further, the “apparent permeability / bidirectional transport” value in the data set on Caco-2 cells [7] is given as “low permeability”.
Regarding `CN1CC[C@]23c4c5ccc(O)c4O[C@H]2[C@@H](O)C=C[C@H]3[C@H]1C5.O=S(=O)(O)O` [morphine, Morphine sulfate], the “percentage maximum possible effect (% MPE)” value in the data set with mice turned out to be 100%. Besides, the “intestinal motility (% of intestine length travelled by charcoal)” value in the data set on morphine naive mice is listed as 12.4±2.0%.
For the compound `COC(=O)/C=C/C(=O)N[C@@H]1CC[C@@]2(O)[C@H]3Cc4ccc(O)c5c4[C@@]2(CCN3CC2CC2)[C@H]1O5` [β-FNA, β-funaltrexamine], the “Percent Max of DAMGO” value at MOR [8] stood at 0.00%. The inhibitory constant (Ki) turned out to be 0.41 ± 0.04 nM on MOR [9]; 27.8 ± 4.6 nM at DOR [10]; 27.8 ± 4.6 nM at DOR [11]; 0.94 ± 0.05 nM at KOR [12]; 0.94 ± 0.05 nM on KOR [13]; 0.41 ± 0.04 nM on MOR [14].
For “17-Cyclopropylmethyl-3,14β-dihydroxy-4,5α-epoxy-6β-[(4′-pyridyl)acetamido]morphinan [Compound 6]”, the “withdrawal symptoms” value in [15] was “marginal withdrawing symptoms”. Also, the “MOR 35S-GTP[γS] Binding % Emax of DAMGO (see reference 65)” value on MOR [16] is given as 22.72 ± 0.84%. Moreover, at MOR [16] (read-out: MOR 35S-GTP[γS] Binding EC50 (see reference 65)), the EC50 is 1.14 ± 0.38 nM. For the same compound, in data set [17], the “diarrhea” value was “incidence of diarrhea associated with high doses of NAP”. Moreover, the Ki at MOR [18] was 0.37 ± 0.07 nM. At MOR [19] (n=3), the EC50 came to 1.15 ± 0.384 nM and the “Emax (% Stim)” value is listed as 83.3 ± 3.1 % Stim. Also, the “Percent Max of DAMGO” value at MOR [19] (normalized to full agonist DAMGO (3 μM)) is recorded as 22.72 ± 0.84%. In addition, in the data set with Caco-2 cells [20], the “apparent permeability (words, reported previously)” value was “significantly low”. Also, the “AD50 value for blockade of morphine antinociception” value in data set [21] was 4.5198 (2.4570 to 8.269.12) mg/kg (95% C.L.).
With `C=CCN1CC[C@]23c4c5ccc(O)c4O[C@H]2C(=O)CC[C@@]3(O)[C@H]1C5` [Naloxone, reference compound], the systemic bioavailability in data set [22] is listed as approximately 2%. The “AD50 values (data taken from Li, et al.)” value in [23] is listed as 0.05 (0.03-0.09) mg/kg (95% CL). Further, the “AD50 value for blockade of morphine antinociception” value in [21] is reported as 0.05 (0.03 to 0.09) mg/kg (95% C.L.).
With “17-Cyclopropylmethyl-3,14β-dihydroxy-4,5α-epoxy-6β-{2′-[(pyridine-4″-yl)carboxamido]acetamido}morphinan [Compound 12]”, at KOR [1], the “KOR 35S-GTP[γS] Binding % Emax of U50,488H” value was 23.5 ± 1.6% and the EC50 turned out to be 25 ± 22.4 nM. The inhibition constant Ki on KOR [2] stood at 203 ± 67 nM. On MOR [3], the midpoint of the response, the EC50, lay at 2.84 ± 0.53 nM and the “MOR 35S-GTP[γS] Binding % Emax of DAMGO” value was 22.62 ± 0.66%. In addition, on MOR [4], the “Selectivity δ/μ” value stood at 719, the “Selectivity κ/μ” value came out at 278 and the Ki was 0.73 ± 0.59 nM. Besides, on DOR [5], the Ki came to 526 ± 78.3 nM. On DOR [6], the “DOR 35S-GTP[γS] Binding % Emax of SNC80” value came to 84.3 ± 23.2% and the 50% effective concentration (EC50) is 19 ± 2.9 nM. In the data set on Caco-2 cells [7], the “apparent permeability / bidirectional transport” value was “no significant difference in its bidirectional transport capacity”.

(Values after patent US8980908B2, “Non-peptidyl, potent, and selective mu opioid receptor antagonists and their use in treating opioid addiction and opioid induced constipation” (Virginia Commonwealth University, priority 2009, dated 2015).)
